Data from patent US9132130B2, “Purine derivative and antitumor agent using same” (ZENYAKU KOGYO KABUSHIKI KAISHA, priority 2009, dated 2015).

Assays:
Assay type in all cases: cell-based
[1] = system: P388 cells (mouse leukemia cells); assay: in vitro antitumor activity test, P388 cells, XTT colorimetry; conditions: cultured 72 hours
Description: P388 cells (mouse leukemia cells) passaged in the abdominal cavity of DBA/2 mice were extracted with ascitic fluid, and cultured in a RPMI 1640 medium (added with 10% fetal bovine serum, 25 mM HEPES, 0.1 mg/ml kanamycin and 5 μM 2-hydroxyethyldisulfide) at 37° C. in 5% carbon dioxide gas. After culturing for 16 hours, floating P388 cells were made into a single cell suspension of 4×10^4 cells per 1 ml using the same RPMI 1640 medium as given above. The test substances were dissolved in DMSO, then diluted in a RPMI 1640 medium (added with 10% fetal bovine serum, 25 mM HEPES and 0.1 mg/ml kanamycin) and prepared so that the concentrations were 2.0×10^−9 to 2.0×10^−4 M.
0.1 ml of the cell suspension was placed into each well of 96-well microplates, then 0.1 ml of the sample solutions were added, and cultured for 72 hours at 37° C. in 5% carbon dioxide gas.
(§1) Afterwards, the level of growth inhibition at various sample concentrations was obtained using XTT colorimetry, and concentrations at which growth was inhibited by 50% (GI50 values [μM]) were calculated.

[2] = system: WiDr cells (human colon cancer cells); assay: in vitro antitumor activity test, WiDr cells, XTT colorimetry; conditions: cultured 72 hours
Description: (§2) WiDr cells (human colon cancer cells) subcultured in a culture medium composed of a MEM medium added with 10% fetal bovine serum, 25 mM HEPES and 0.1 mg/ml kanamycin under the conditions of 37° C. and 5% carbon dioxide gas were made into single floating cells by treating with trypsin/EDTA, and a single cell suspension of 3×10^4 cells per 1 ml was prepared using the MEM medium (added with 10% fetal bovine serum, 25 mM HEPES and 0.1 mg/ml kanamycin). After dissolving the test compounds in DMSO, they were diluted in a RPMI 1640 medium (added with 10% fetal bovine serum, 25 mM HEPES and 0.1 mg/ml kanamycin) and prepared so that the concentrations were 2.0×10^−9 to 2.0×10^−4 M.
(§3) 0.1 ml of the cell suspension was placed into each well of 96-well microplates, cultured for 24 hours to allow the cells to adhere to the microplates, then 0.1 ml of the sample solutions were added, and cultured for 72 hours at 37° C. in 5% carbon dioxide gas.
as §1

[3] = system: A549 cells (human lung cancer cells); assay: in vitro antitumor activity test, A549 cells, XTT colorimetry; conditions: cultured 72 hours
Description: as §2, §3, §1
(§4) In addition, cells other than WiDr cells that were used, and the condition for preparing each single cell suspension were as follows.
A549 cells (human lung cancer cells): 2×10^4 cells/ml

[4] = system: PC-3 cells (human prostate cancer cells); assay: in vitro antitumor activity test, PC-3 cells, XTT colorimetry; conditions: PC-3 human prostate cancer cells, cultured 72 hours
Description: as §2, §3, §1, §4
PC-3 cells (human prostate cancer cells): 2×10^4 cells/ml

[5] = system: B16F10 cells (mouse melanoma [malignant melanoma] cells); assay: in vitro antitumor activity test, B16F10 cells, XTT colorimetry; conditions: B16-F10, cultured 72 hours
Description: as §2, §3, §1, §4
B16F10 cells (mouse melanoma [malignant melanoma] cells): 1×10^4 cells/ml

Structure (SMILES) | GI50 [1] | GI50 [2] | GI50 [3] | GI50 [4] | GI50 [5]
CCc1nc2c(N(C)C)nc(SCc3ccc(OC)c(NC(C)=O)c3)nc2n1C [Compound 60, 2-(3-acetylamino-4-methoxybenzylsulfanyl)-6-dimethylamino-8-ethyl-9-methyl-9H-purine] | 610 nM | 1300 nM | 1400 nM | 870 nM | 1000 nM
COc1ccc(CSc2nc(N(C)C(C)=O)c3ncn(C)c3n2)cc1 [Compound 61, 6-(N-acetyl-N-methylamino)-2-(4-methoxybenzylsulfanyl)-9-methyl-9H-purine] | 330 nM | 460 nM | 520 nM | 890 nM | 840 nM
CCc1nc2c(N(C)C)nc(SCc3ccc(OC)c(C#N)c3)nc2n1C [Compound 69, 2-(3-cyano-4-methoxybenzylsulfanyl)-6-dimethylamino-8-ethyl-9-methyl-9H-purine] | 110 nM | 150 nM | 150 nM | 120 nM | 200 nM
CCc1nc2c(N(C)C)nc(SCc3ccc(OC)c(F)c3)nc2n1C [Compound 71, 6-dimethylamino-8-ethyl-2-(3-fluoro-4-methoxybenzylsulfanyl)-9-methyl-9H-purine] | 80 nM | 80 nM | 100 nM | 50 nM | 110 nM
CCN(C)c1nc(SCc2ccc(OC)cc2)nc2c1ncn2C [Compound 75, 6-(N-ethyl-N-methylamino)-2-(4-methoxybenzylsulfanyl)-9-methyl-9H-purine] | 380 nM | 380 nM | 520 nM | 560 nM | 380 nM
CCc1nc2c(N3CCOCC3)nc(SCc3ccc(OC)c(Br)c3)nc2n1C [Compound 78, 2-(3-bromo-4-methoxybenzylsulfanyl)-8-ethyl-9-methyl-6-morpholino-9H-purine] | 910 nM | 1100 nM | 1100 nM | 360 nM | 1200 nM
COc1ccc(CSc2nc(N3CCOCC3)c3ncn(C)c3n2)cc1C#N [Compound 80, 2-(3-cyano-4-methoxybenzylsulfanyl)-9-methyl-6-morpholino-9H-purine] | 70 nM | 160 nM | 140 nM | 70 nM | 210 nM
CCN(C)c1nc(SCc2ccc(OC)c(N)c2)nc2c1ncn2C [Compound 84, 2-(3-amino-4-methoxybenzylsulfanyl)-6-(N-ethyl-N-methylamino)-9-methyl-9H-purine] | 260 nM | 1900 nM | 550 nM | 980 nM | 510 nM
COc1ccc(CSc2nc(N(C)C)c3ncn(C)c3n2)cc1C#N [Compound 87, 2-(3-cyano-4-methoxybenzylsulfanyl)-6-dimethylamino-9-methyl-9H-purine] | 20 nM | 40 nM | 50 nM | 40 nM | 80 nM
CCNc1nc(SCc2ccc(OC)c(C#N)c2)nc2c1ncn2C [Compound 89, 2-(3-cyano-4-methoxybenzylsulfanyl)-6-ethylamino-9-methyl-9H-purine] | 110 nM | 120 nM | 150 nM | 210 nM | 130 nM
CCNc1nc(SCc2ccc(OC)c(F)c2)nc2c1ncn2C [Compound 91, 6-ethylamino-2-(3-fluoro-4-methoxybenzylsulfanyl)-9-methyl-9H-purine] | 90 nM | 90 nM | 140 nM | 340 nM | 140 nM
CCc1nc2c(N3CCOCC3)nc(SCc3ccc(OC)c(N)c3)nc2n1CC [Compound 97, 2-(3-amino-4-methoxybenzylsulfanyl)-8,9-diethyl-6-morpholino-9H-purine] | 90 nM | 300 nM | 140 nM | 120 nM | 290 nM

More lines, now with the values ahead:

GI50 [1] | GI50 [2] | GI50 [3] | GI50 [4] | GI50 [5] | Structure (SMILES)
70 nM | 140 nM | 100 nM | 100 nM | 380 nM | CCc1nc2c(N3CCOCC3)nc(SCc3ccc(OC)c(C#N)c3)nc2n1C [Compound 51, 2-(3-cyano-4-methoxybenzylsulfanyl)-8-ethyl-9-methyl-6-morpholino-9H-purine]
1050 nM | 1390 nM | 1340 nM | 780 nM | 1390 nM | CCc1nc2c(N3CCOCC3)nc(SCc3ccc(OC)c(NC(=O)c4ccco4)c3)nc2n1C [Compound 55, 8-ethyl-2-[3-(2-furylcarbonylamino)-4-methoxybenzylsulfanyl]-9-methyl-6-morpholino-9H-purine]
1500 nM | 3300 nM | 1600 nM | 870 nM | 1900 nM | CCc1nc2c(N3CCOCC3)nc(SCc3ccc(OC)c(NC(=O)COC)c3)nc2n1C [Compound 63, 8-ethyl-2-(3-methoxyacetylamino-4-methoxybenzylsulfanyl)-9-methyl-6-morpholino-9H-purine]
380 nM | 310 nM | 480 nM | 450 nM | 380 nM | CCNc1nc(SCc2ccc(OC)cc2)nc2c1ncn2C [Compound 64, 6-ethylamino-2-(4-methoxybenzylsulfanyl)-9-methyl-9H-purine]
< 40 nM | < 40 nM | < 40 nM | < 40 nM | < 40 nM | CNc1nc(SCc2ccc(OC)c(C#N)c2)nc2c1ncn2C [Compound 72, 2-(3-cyano-4-methoxybenzylsulfanyl)-6-methylamino-9-methyl-9H-purine]
< 40 nM | < 40 nM | < 40 nM | < 40 nM | < 40 nM | CNc1nc(SCc2ccc(OC)c(F)c2)nc2c1ncn2C [Compound 73, 2-(3-fluoro-4-methoxybenzylsulfanyl)-6-methylamino-9-methyl-9H-purine]
1000 nM | 1300 nM | 1400 nM | 440 nM | 1500 nM | C=Cc1cc(CSc2nc(N3CCOCC3)c3nc(CC)n(C)c3n2)ccc1OC [Compound 79, 8-ethyl-2-(4-methoxy-3-vinylbenzylsulfanyl)-9-methyl-6-morpholino-9H-purine]
110 nM | 210 nM | 140 nM | 300 nM | 300 nM | CCN(C)c1nc(SCc2ccc(OC)c(F)c2)nc2c1ncn2C [Compound 82, 6-(N-ethyl-N-methylamino)-2-(3-fluoro-4-methoxybenzylsulfanyl)-9-methyl-9H-purine]
90 nM | 140 nM | 150 nM | 180 nM | 180 nM | COc1ccc(CSc2nc(N3CCOCC3)c3ncn(C)c3n2)cc1F [Compound 83, 2-(3-fluoro-4-methoxybenzylsulfanyl)-9-methyl-6-morpholino-9H-purine]
70 nM | 80 nM | 140 nM | 120 nM | 120 nM | CCN(C)c1nc(SCc2ccc(OC)c(C#N)c2)nc2c1ncn2C [Compound 85, 2-(3-cyano-4-methoxybenzylsulfanyl)-6-(N-ethyl-N-methylamino)-9-methyl-9H-purine]
30 nM | 40 nM | 50 nM | 50 nM | 60 nM | COc1ccc(CSc2nc(N(C)C)c3ncn(C)c3n2)cc1F [Compound 86, 6-dimethylamino-2-(3-fluoro-4-methoxybenzylsulfanyl)-9-methyl-9H-purine]
520 nM | 1370 nM | 720 nM | 1730 nM | 1100 nM | CCc1ccc(CSc2nc(N3CCOCC3)c3nc(CC)n(C)c3n2)cc1N [Compound 90, 2-(3-amino-4-ethylbenzylsulfanyl)-8-ethyl-9-methyl-6-morpholino-9H-purine]
80 nM | 80 nM | 100 nM | 110 nM | 140 nM | CCc1nc2c(N3CCOCC3)nc(SCc3ccc(OC)c(C#N)c3)nc2n1CC [Compound 94, 2-(3-cyano-4-methoxybenzylsulfanyl)-8,9-diethyl-6-morpholino-9H-purine]
960 nM | 1290 nM | 1180 nM | 5950 nM | 1980 nM | CCOc1ccc(CSc2nc(N3CCOCC3)c3ncn(C)c3n2)cc1 [Compound 99, 2-(4-ethoxybenzylsulfanyl)-9-methyl-6-morpholino-9H-purine]
